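These data come from cells grown in 96-well plates and exposed to compound for 48 hours at five concentrations. GI50 is the concentration that inhibits growth by half.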 The source made the active and inactive calls. Cut-off read from the data, not from the text of the source: active = GI50 up to about 1.1 µM and inactive = higher.
Columns and labels:
Assay in all cases: inhibition of tumour cell growth, NCI panel, 48 h
[1] = test system: HOP-92
[2] = test system: SN12C
[3] = test system: SK-MEL-5
[4] = test system: SK-OV-3
[5] = test system: NCI-H226
[6] = test system: SK-MEL-2
[7] = test system: SF-539
[8] = test system: OVCAR-3
[9] = test system: OVCAR-8
[10] = test system: TK-10
[11] = test system: SR
[12] = test system: ACHN
[13] = test system: HOP-62
[14] = test system: SNB-75
[15] = test system: K562
[16] = test system: A498
[17] = test system: M14
[18] = test system: EKVX
[19] = test system: KM12
[20] = test system: SK-MEL-28

| Structure (SMILES) | GI50 [1] | GI50 [2] | GI50 [3] | GI50 [4] | GI50 [5] | GI50 [6] | GI50 [7] | GI50 [8] | GI50 [9] | GI50 [10] | GI50 [11] | GI50 [12] | GI50 [13] | GI50 [14] | GI50 [15] | GI50 [16] | GI50 [17] | GI50 [18] | GI50 [19] | GI50 [20] |
| --- | --- | --- | --- | --- | --- | --- | --- | --- | --- | --- | --- | --- | --- | --- | --- | --- | --- | --- | --- | --- |
| c1cc2c3ccsc3c3sccc3c2s1 | > 100 µM (inactive) | > 100 µM (inactive) | > 100 µM (inactive) | > 100 µM (inactive) | 10 µM (inactive) | 10.6 µM (inactive) | 90.8 µM (inactive) | > 100 µM (inactive) | > 100 µM (inactive) | > 100 µM (inactive) | 24.7 µM (inactive) | > 100 µM (inactive) | 21.4 µM (inactive) | 23.1 µM (inactive) | > 100 µM (inactive) | > 100 µM (inactive) | > 100 µM (inactive) | > 100 µM (inactive) | > 100 µM (inactive) | > 100 µM (inactive) |
| Cc1cc2sc(C)[n+](CCCOS(=O)(=O)[O-])c2cc1C | > 100 µM (inactive) | > 100 µM (inactive) | > 100 µM (inactive) | > 100 µM (inactive) | > 100 µM (inactive) | > 100 µM (inactive) | > 100 µM (inactive) | > 100 µM (inactive) | > 100 µM (inactive) | > 100 µM (inactive) | 66.2 µM (inactive) | > 100 µM (inactive) | > 100 µM (inactive) | > 100 µM (inactive) | 63.4 µM (inactive) | > 100 µM (inactive) | > 100 µM (inactive) | > 100 µM (inactive) | > 100 µM (inactive) | > 100 µM (inactive) |
| CC[n+]1c(/C=C/c2ccc(N(CCCl)CCCl)cc2)ccc2cc(NC(=O)/C=C/c3ccccc3)ccc21 | 0.251 µM (active) | 0.261 µM (active) | 0.174 µM (active) | 0.578 µM (active) | 0.456 µM (active) | 0.431 µM (active) | 0.308 µM (active) | 1.75 µM (inactive) | 0.406 µM (active) | 2.95 µM (inactive) | 0.189 µM (active) | 0.807 µM (active) | 0.318 µM (active) | 0.131 µM (active) | 0.134 µM (active) | 10.3 µM (inactive) | 0.436 µM (active) | 0.927 µM (active) | 0.423 µM (active) | 0.762 µM (active) |
| O=C(CC(O)(C(F)(F)Cl)C(F)(F)Cl)CC(O)(C(F)(F)Cl)C(F)(F)Cl | 0.75 µM (active) | 4.65 µM (inactive) | 1.25 µM (inactive) | 1.87 µM (inactive) | 1.33 µM (inactive) | 1.13 µM (inactive) | 2.95 µM (inactive) | 1.12 µM (inactive) | 2.58 µM (inactive) | 1.81 µM (inactive) | 2.65 µM (inactive) | 0.927 µM (active) | 1.98 µM (inactive) | 1.76 µM (inactive) | 0.843 µM (active) | 2.21 µM (inactive) | 4.03 µM (inactive) | 1.21 µM (inactive) | 3.04 µM (inactive) | 1.95 µM (inactive) |
| Cc1c2cccc-2c2cc(O)c3ccccc3c2n1-c1ccc(N(C)C)cc1 | 2.51 µM (inactive) | 16.1 µM (inactive) | 11.8 µM (inactive) | 15.8 µM (inactive) | 9.68 µM (inactive) | 16.7 µM (inactive) | 14.3 µM (inactive) | 6.46 µM (inactive) | 15.9 µM (inactive) | 13 µM (inactive) | 4.63 µM (inactive) | 12.4 µM (inactive) | 12.2 µM (inactive) | 4.06 µM (inactive) | 6.81 µM (inactive) | 17.1 µM (inactive) | 14.5 µM (inactive) | 2.83 µM (inactive) | 6.82 µM (inactive) | 17.2 µM (inactive) |

— ChEMBL document CHEMBL1201862, “PubChem BioAssay data set” (2004)
